Target: T1, STAT6 (endogenous, HiBiT-tagged) in HeLa LgBiT clone 4.14 cells (Homo sapiens, UniProt P42226)
T1 construct: These cells express endogenous STAT6; host or cells: HeLa LgBiT clone 4.14
T1 sequence (P42226 1-847): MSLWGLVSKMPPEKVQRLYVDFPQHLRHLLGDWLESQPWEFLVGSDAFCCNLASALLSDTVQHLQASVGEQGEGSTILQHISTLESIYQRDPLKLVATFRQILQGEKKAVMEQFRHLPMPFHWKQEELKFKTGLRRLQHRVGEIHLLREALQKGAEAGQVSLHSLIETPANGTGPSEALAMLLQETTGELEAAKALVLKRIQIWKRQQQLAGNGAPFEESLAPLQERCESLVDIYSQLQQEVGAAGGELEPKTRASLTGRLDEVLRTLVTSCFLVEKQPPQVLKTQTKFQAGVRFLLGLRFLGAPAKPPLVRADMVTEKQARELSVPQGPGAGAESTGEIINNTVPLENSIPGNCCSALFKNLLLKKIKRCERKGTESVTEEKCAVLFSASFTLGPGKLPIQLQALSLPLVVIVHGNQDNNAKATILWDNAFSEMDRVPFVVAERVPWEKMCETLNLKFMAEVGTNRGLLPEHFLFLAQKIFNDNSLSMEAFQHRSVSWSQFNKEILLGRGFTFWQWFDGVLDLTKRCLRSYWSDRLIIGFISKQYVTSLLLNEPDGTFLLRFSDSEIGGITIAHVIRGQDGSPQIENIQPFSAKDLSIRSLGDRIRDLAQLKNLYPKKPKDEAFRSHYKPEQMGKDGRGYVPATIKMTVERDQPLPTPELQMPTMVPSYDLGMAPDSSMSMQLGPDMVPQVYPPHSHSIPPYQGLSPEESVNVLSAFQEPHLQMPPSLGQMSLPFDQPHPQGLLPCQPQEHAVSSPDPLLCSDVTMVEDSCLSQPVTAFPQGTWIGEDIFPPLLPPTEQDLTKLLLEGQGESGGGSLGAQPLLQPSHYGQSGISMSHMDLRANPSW
Assay: STAT6 Degrader Assay (HiBiT based, HeLa LgBiT clone 4.14 cells, luminescence, DC50)
Format: cell-based
Details: DC50 provided for test compounds with >80% Emax, geometric mean, read-out: STAT6 degradation DC50
Method in brief: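 HeLa LgBiT clone 4.14 cells carry CRISPR-inserted HiBiT on endogenous STAT6; 5000 cells/well were exposed to compound for 4-24 h at 37 °C, 5% CO2. Nano-Glo substrate added for 0.5 h; luminescence reflects remaining STAT6, with terfenadine ([…]) wells defining 100% degradation.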

| SMILES | DC50 |
| --- | --- |
| CNc1ccc(-c2ccnc3c2cc([C@H](C)N2CCC(c4ccc(C(=O)N5CCn6nc(CN7CCC(c8ccc(N[C@@H]9CCC(=O)NC9=O)cc8F)CC7)cc6C5)cc4)CC2)n3C)cn1 (single isomer, unassigned) [Example 2c43] | 1.6 nM |
| COC(C)c1nc2cc(-c3ccnc4c3cc([C@H](C)N3CCC(c5ccc(C(=O)N6CCC(CN7CCN(c8ccc(NC9CCC(=O)NC9=O)cc8F)CC7)CC6)cc5)CC3)n4C)ccc2[nH]1 (stereo in doubt) [Example 2c21, 3-((3-fluoro-4-(4-((1-(4-(1-((S)-1-(4-(2-((R)-1-methoxyethyl)-1H-benzo[d]imidazol-5-yl)-1-methyl-1H-pyrrolo[2,3-b]pyridin-2-yl)ethyl)piperidin-4-yl)benzoyl)piperidin-4-yl)methyl)piperazin-1-yl)phenyl)amino)piperidine-2,6-dione] | 4.4 nM |
| C[C@@H]1CN(c2ccc(NC3CCC(=O)NC3=O)cc2F)CCN1CC1CCN(C(=O)c2ccc(C3CCN(Cc4cc5c(-c6ccc(N)nc6)ccnc5n4C)CC3)cc2)CC1 (stereo partly drawn) [Example 2f6, 3-((4-((R)-4-((1-(4-(1-((4-(6-aminopyridin-3-yl)-1-methyl-1H-pyrrolo[2,3-b]pyridin-2-yl)-methyl)-piperidin-4-yl)benzoyl)piperidin-4-yl)methyl)-3-methylpiperazin-1-yl)-3-fluorophenyl)amino)-piperidine-2,6-dione] | 38.8 nM |
| CC(c1cc2c(-c3ccc(N)nc3)ccnc2n1C)N1CCC(c2ccc(C(=O)N3CCC(CN4CCN(c5ccc(N[C@@H]6CCC(=O)NC6=O)cc5F)CC4)CC3)cc2)CC1 (single isomer, unassigned) [Example 2c12] | 17.7 nM |

Other lines, results leading:

| DC50 | SMILES |
| --- | --- |
| 34 nM | COCc1nc2cc(-c3ccnc4c3cc([C@H](C)N3CCC(c5ccc(C(=O)N6CCC(CN7CCN(c8ccc(NC9CCC(=O)NC9=O)cc8C(F)(F)F)CC7)CC6)cc5)CC3)n4C)ccc2[nH]1 (stereo partly drawn) [Example 2i5, 3-((4-(4-((1-(4-(1-((S)-1-(4-(2-(methoxymethyl)-1H-benzo[d]imidazol-5-yl)-1-methyl-1H-pyrrolo[2,3-b]pyridin-2-yl)ethyl)piperidin-4-yl)benzoyl)piperidin-4-yl)methyl)piperazin-1-yl)-3-(trifluoromethyl)phenyl)amino)piperidine-2,6-dione] |
| 36.9 nM | Cn1c(CN2CCC(c3ccc(C(=O)N4CCC(CN5CCC(N6CCN(c7ccc(NC8CCC(=O)NC8=O)cc7F)CC6)C(F)(F)C5)CC4)cc3)CC2)cc2c(-c3ccc4[nH]ncc4c3)ccnc21 (stereo not shown) [Example 2p1, 3-((4-(4-(1-((1-(4-(1-((4-(1H-indazol-5-yl)-1-methyl-1H-pyrrolo[2,3-b]pyridin-2-yl)methyl)-piperidin-4-yl)benzoyl)piperidin-4-yl)methyl)-3,3-difluoropiperidin-4-yl)piperazin-1-yl)-3-fluorophenyl)-amino)piperidine-2,6-dione] |
| 18 nM | C[C@@H](c1cc2c(-c3ccc4[nH]ncc4c3)ccnc2n1C)N1CCC(c2ccc(C(=O)N3CCC(CN4CCN(c5ccc(NC6CCC(=O)NC6=O)c(F)n5)CC4)CC3)cc2)CC1 (stereo partly drawn) [Example 2n7, 3-((6-(4-((1-(4-(1-((S)-1-(4-(1H-indazol-5-yl)-1-methyl-1H-pyrrolo[2,3-b]pyridin-2-yl)ethyl)-piperidin-4-yl)benzoyl)piperidin-4-yl)methyl)piperazin-1-yl)-2-fluoropyridin-3-yl)amino)piperidine-2,6-dione] |
| 11.7 nM | COCc1nc2cc(-c3ccnc4c3cc(CN3CCC(c5ccc(C(=O)N6CCC(CN7CCN(c8ncc(NC9CCC(=O)NC9=O)cc8F)CC7)CC6)cc5)CC3)n4C)ccc2[nH]1 (stereo not shown) [Example 2n6, 3-((5-fluoro-6-(4-((1-(4-(1-((4-(2-(methoxymethyl)-1H-benzo[d]imidazol-5-yl)-1-methyl-1H-pyrrolo[2,3-b]pyridin-2-yl)methyl)piperidin-4-yl)benzoyl)piperidin-4-yl)methyl)piperazin-1-yl)pyridin-3-yl)amino)piperidine-2,6-dione] |
| 20.6 nM | COCc1nc2cc(-c3ccnc4c3cc(CN3CCC(c5ccc(C(=O)N6CCC(CN7CCC(N8CCN(c9ccc(NC%10CCC(=O)NC%10=O)cc9F)CC8)C(F)(F)C7)CC6)cc5)CC3)n4C)ccc2[nH]1 (stereo not shown) [Example 2p3, 3-((4-(4-(3,3-difluoro-1-((1-(4-(1-((4-(2-(methoxymethyl)-1H-benzo[d]imidazol-5-yl)-1-methyl-1H-pyrrolo[2,3-b]pyridin-2-yl)methyl)piperidin-4-yl)benzoyl)piperidin-4-yl)methyl)piperidin-4-yl)piperazin-1-yl)-3-fluorophenyl)amino)piperidine-2,6-dione] |

Same assay, conditions: Emax provided for test compounds with <80% Emax (and 2c15), geometric mean, read-out: STAT6 degradation Emax

| SMILES | Emax |
| --- | --- |
| C[C@H](c1cc2c(-c3ccc(N)nc3)ccnc2n1C)N1CCC(c2ccc(C(=O)N3CCC(CN4CCN(c5ccc(NC6CCC(=O)NC6=O)cc5F)CC4)CC3)cc2)CC1 (stereo partly drawn) [Example 2c13, 3-((4-(4-((1-(4-(1-((R)-1-(4-(6-aminopyridin-3-yl)-1-methyl-1H-pyrrolo[2,3-b]pyridin-2-yl)ethyl)-piperidin-4-yl)benzoyl)piperidin-4-yl)methyl)piperazin-1-yl)-3-fluorophenyl)amino)piperidine-2,6-dione] | < 20% |
| COCc1nc2cc(-c3ccnc4c3cc(CN3CCC(c5ccc(C(=O)N6CCC(CN7CCN(c8ccc(NC9CCC(=O)NC9=O)c(F)c8)CC7)CC6)cc5)CC3)n4C)ccc2[nH]1 (stereo not shown) [Example 2b3, 3-((2-fluoro-4-(4-((1-(4-(1-((4-(2-(methoxymethyl)-1H-benzo[d]imidazol-5-yl)-1-methyl-1H-pyrrolo[2,3-b]pyridin-2-yl)methyl)piperidin-4-yl)benzoyl)piperidin-4-yl)methyl)piperazin-1-yl)phenyl)amino)piperidine-2,6-dione] | 70 to 80% |
| C[C@H]1CN(c2ccc(NC3CCC(=O)NC3=O)cc2F)CCN1CC1CCN(C(=O)c2ccc(C3CCN(Cc4cc5c(-c6ccc(N)nc6)ccnc5n4C)CC3)cc2)CC1 (stereo partly drawn) [Example 2f3, 3-((4-((S)-4-((1-(4-(1-((4-(6-aminopyridin-3-yl)-1-methyl-1H-pyrrolo[2,3-b]pyridin-2-yl)methyl)piperidin-4-yl)benzoyl)piperidin-4-yl)methyl)-3-methylpiperazin-1-yl)-3-fluorophenyl)amino)-piperidine-2,6-dione] | 20 to 30% |

The next lines start with the values.

| Emax | SMILES |
| --- | --- |
| 60 to 70% | Cn1c(CN2CCC(c3ccc(C(=O)N4CCC(CN5CCN(Cc6ccc(NC7CCC(=O)NC7=O)cc6)CC5)CC4)cc3)CC2)cc2c(-c3ccc4[nH]ncc4c3)ccnc21 (stereo not shown) [Example 2s1, 3-((4-((4-((1-(4-(1-((4-(1H-indazol-5-yl)-1-methyl-1H-pyrrolo[2,3-b]pyridin-2-yl)methyl)-piperidin-4-yl)benzoyl)piperidin-4-yl)methyl)piperazin-1-yl)methyl)phenyl)amino)piperidine-2,6-dione] |
| 70 to 80% | CN(C(=O)c1ccc(C2CCN(Cc3cc4c(-c5ccc6[nH]ncc6c5)ccnc4n3C)CC2)cc1)c1ccc(C2CCN(c3ccc(NC4CCC(=O)NC4=O)cc3F)CC2)cc1 (stereo not shown) [Example 2j1, 4-(1-((4-(1H-indazol-5-yl)-1-methyl-1H-pyrrolo[2,3-b]pyridin-2-yl)methyl)piperidin-4-yl)-N-(4-(1-(4-((2,6-dioxopiperidin-3-yl)amino)-2-fluorophenyl)piperidin-4-yl)phenyl)-N-methylbenzamide] |
| 40 to 50% | Cn1c(CN2CCC(c3ccc(C(=O)N4CCC(CN5CCN(c6ccc(NC7CCC(=O)NC7=O)nc6)CC5)CC4)cc3)CC2)cc2c(-c3ccc4[nH]ncc4c3)ccnc21 (stereo not shown) [Example 2t3, 3-((5-(4-((1-(4-(1-((4-(1H-indazol-5-yl)-1-methyl-1H-pyrrolo[2,3-b]pyridin-2-yl)methyl)piperidin-4-yl)benzoyl)piperidin-4-yl)methyl)piperazin-1-yl)pyridin-2-yl)amino)piperidine-2,6-dione] |
| 50 to 60% | CN(C(=O)c1ccc(C2CCN(Cc3cc4c(-c5ccc(N)nc5)ccnc4n3C)CC2)cc1)c1ccc(CC2CCN(c3ccc(NC4CCC(=O)NC4=O)cc3)CC2)cc1 (stereo not shown) [Example 2o1, 4-(1-((4-(6-aminopyridin-3-yl)-1-methyl-1H-pyrrolo[2,3-b]pyridin-2-yl)-methyl)piperidin-4-yl)-N-(4-((1-(4-((2,6-dioxopiperidin-3-yl)amino)phenyl)piperidin-4-yl)methyl)phenyl)-N-methylbenzamide] |

— patent publication US20260014147A1, “STAT6 DEGRADERS” (Gilead Sciences, Inc., priority 2024, published 2026)
